# Measurements published in paper PMC12090182, “Repurposing of the RIPK1-Selective Benzo[1,4]oxazepin-4-one Scaffold for the Development of a Type III LIMK1/2 Inhibitor” (ACS Chemical Biology, 2025).
# Tested on: MRC-9 cells
# Test: Multiplex high-content viability assessment
# Type: cell-based
# Conditions: human fibroblast
# Protocol: To assess the influence on cell health, a high-content screening in living cells called the multiplex high-content assay, as described previously by Tjaden et al., was performed.[38] In brief, HEK293T (ATCC CRL-1573) and U2OS (ATCCHTB-96) were cultured in DMEM plus L-glutamine (high glucose) supplemented by 10% FBS (Gibco) and penicillin/streptomycin (Gibco). MRC-9 fibroblasts ([…]) were cultured in EMEM plus L-glutamine supplemented by 10% FBS (Gibco) and penicillin/streptomycin (Gibco). Cells were seeded at a density of 1250 cells per well in a 384-well plate in a culture medium (cell culture microplate, PS, f-bottom, μClear, 781091, Greiner), with a volume of 50 μL per well. All outer wells were filled with 100 μL of PBS buffer (Gibco). […] The cell shape and fluorescence were measured before treatment and 12, 24, and 48 h after compound treatment using the CQ1 high-content confocal microscope (Yokogawa, Musashino, Japan). […] The compounds were tested at 1 and 10 μM, respectively. Acquired images of the cells were processed using Yokogawa CellPathfinder software (v3.04.02.02). […] Results were normalized to cells exposed to 0.1% DMSO. All compounds were tested in biological duplicates, and SEM (standard error of mean) was calculated of biological duplicates.
# [1] = 1 µM, 48 h after treatment, biological replicate 2
# [2] = 10 µM, 0 h, biological replicate 1
# [3] = 10 µM, 12 h, biological replicate 1
# [4] = 10 µM, 24 h, biological replicate 1
# [5] = 10 µM, 48 h, biological replicate 1
# [6] = 10 µM, 0 h after treatment, biological replicate 2
# [7] = 10 µM, 12 h after treatment, biological replicate 2
# [8] = 10 µM, 24 h after treatment, biological replicate 2
# [9] = 10 µM, 48 h after treatment, biological replicate 2
smiles,measurement,setting,value
CCCCN(Cc1ccccc1)C(=O)c1ccc(S(=O)(=O)Nc2ccccc2)cc1 [TH257],Population with increased mitochondrial mass (%),[1],3.75%
same,Population with membrane disruption (%),[1],8.75%
same,Cell count normalized to cells treated with DMSO control,[2],1.048
same,Cell count per well,[2],157
same,Population Fragmented Nuclei (%),[2],18.47%
same,Population Healthy Nuclei (%),[2],59.24%
same,Population Pyknosed Nuclei (%),[2],22.29%
same,Population apoptotic cell (%),[2],34.29%
same,Population cell that influence microtubule strucutre (%),[2],23.66%
same,Population with increased mitochondrial mass (%),[2],3.23%
same,Population with membrane disruption (%),[2],0.00%
same,Cell count normalized to cells treated with DMSO control,[3],1.149
same,Cell count per well,[3],173
same,Population Fragmented Nuclei (%),[3],12.35%
same,Population Healthy Nuclei (%),[3],58.02%
same,Population Pyknosed Nuclei (%),[3],29.63%
same,Population apoptotic cell (%),[3],35.42%
same,Population cell that influence microtubule strucutre (%),[3],80.85%
same,Population with increased mitochondrial mass (%),[3],13.83%
same,Population with membrane disruption (%),[3],4.26%
same,Cell count normalized to cells treated with DMSO control,[4],1.094
same,Cell count per well,[4],165
same,Population Fragmented Nuclei (%),[4],16.25%
same,Population Healthy Nuclei (%),[4],66.25%
same,Population Pyknosed Nuclei (%),[4],17.50%
same,Population apoptotic cell (%),[4],57.14%
same,Population cell that influence microtubule strucutre (%),[4],88.68%
same,Population with increased mitochondrial mass (%),[4],11.32%
same,Population with membrane disruption (%),[4],1.89%
same,Cell count normalized to cells treated with DMSO control,[5],1.18
same,Cell count per well,[5],179
same,Population Fragmented Nuclei (%),[5],23.84%
same,Population Healthy Nuclei (%),[5],63.37%
same,Population Pyknosed Nuclei (%),[5],12.79%
same,Population apoptotic cell (%),[5],72.73%
same,Population cell that influence microtubule strucutre (%),[5],85.32%
same,Population with increased mitochondrial mass (%),[5],20.18%
same,Population with membrane disruption (%),[5],0.92%
same,Cell count normalized to cells treated with DMSO control,[6],0.8298
same,Cell count per well,[6],148
same,Population Fragmented Nuclei (%),[6],24.82%
same,Population Healthy Nuclei (%),[6],45.39%
same,Population Pyknosed Nuclei (%),[6],29.79%
same,Population apoptotic cell (%),[6],47.62%
same,Population cell that influence microtubule strucutre (%),[6],40.63%
same,Population with increased mitochondrial mass (%),[6],9.38%
same,Population with membrane disruption (%),[6],3.13%
same,Cell count normalized to cells treated with DMSO control,[7],0.8645
same,Cell count per well,[7],144
same,Population Fragmented Nuclei (%),[7],24.46%
same,Population Healthy Nuclei (%),[7],56.83%
same,Population Pyknosed Nuclei (%),[7],18.71%
same,Population apoptotic cell (%),[7],50.00%
same,Population cell that influence microtubule strucutre (%),[7],86.08%
same,Population with increased mitochondrial mass (%),[7],13.92%
same,Population with membrane disruption (%),[7],12.66%
same,Cell count normalized to cells treated with DMSO control,[8],0.8917
same,Cell count per well,[8],147
same,Population Fragmented Nuclei (%),[8],25.18%
same,Population Healthy Nuclei (%),[8],59.71%
same,Population Pyknosed Nuclei (%),[8],15.11%
same,Population apoptotic cell (%),[8],57.14%
same,Population cell that influence microtubule strucutre (%),[8],91.57%
same,Population with increased mitochondrial mass (%),[8],19.28%
same,Population with membrane disruption (%),[8],4.82%
same,Cell count normalized to cells treated with DMSO control,[9],0.964
same,Cell count per well,[9],157
same,Population Fragmented Nuclei (%),[9],30.32%
same,Population Healthy Nuclei (%),[9],59.35%
same,Population Pyknosed Nuclei (%),[9],10.32%
same,Population apoptotic cell (%),[9],56.25%
same,Population cell that influence microtubule strucutre (%),[9],89.13%
same,Population with increased mitochondrial mass (%),[9],18.48%
same,Population with membrane disruption (%),[9],0.00%
